Test results as given in patent US11098029B2, “5-alkyl pyrrolidine orexin receptor agonists” (Merck Sharp & Dohme Corp., priority 2019, dated 2021).

target: human OX2R (Homo sapiens (Human), UniProt O43614); test: IPOne (IP-One, Cisbio) orexin receptor agonist assay in CHO cells expressing human OX2R; conditions: not given
Sequence (O43614 whole entry): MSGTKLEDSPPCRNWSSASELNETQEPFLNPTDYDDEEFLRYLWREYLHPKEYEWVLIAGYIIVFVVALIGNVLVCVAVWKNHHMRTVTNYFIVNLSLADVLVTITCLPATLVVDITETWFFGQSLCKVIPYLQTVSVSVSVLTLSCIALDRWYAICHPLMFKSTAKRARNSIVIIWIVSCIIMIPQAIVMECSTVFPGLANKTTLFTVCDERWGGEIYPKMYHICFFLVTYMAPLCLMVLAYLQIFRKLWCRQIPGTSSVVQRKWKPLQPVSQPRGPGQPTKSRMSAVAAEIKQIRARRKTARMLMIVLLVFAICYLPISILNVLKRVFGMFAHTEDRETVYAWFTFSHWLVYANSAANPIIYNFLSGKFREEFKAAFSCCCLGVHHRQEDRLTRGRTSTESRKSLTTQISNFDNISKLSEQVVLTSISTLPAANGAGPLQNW

| Structure (SMILES) | IC50 [nM] |
| --- | --- |
| COC(=O)N1[C@H](CC#N)C[C@H](NS(=O)(=O)N(C)C)[C@@H]1CO[C@H]1CC[C@@H](c2cccc(F)c2)CC1 [Example 52, methyl (2R,3S,5S)-5-(cyanomethyl)-3-((N,N-dimethylsulfamoyl)amino)-2-((((CIS)-4-(3-fluorophenyl)cyclohexyl)oxy)methyl)pyrrolidine-1-carboxylate] | 7.8 |
| CCC1(CC)C[C@@H](NS(C)(=O)=O)[C@@H](CO[C@H]2CC[C@@H](c3ccccc3)CC2)N1C(=O)OC (relative stereo) [Example 42, methyl (CIS)-2,2-diethyl-4-(methylsulfonamido)-5-((((CIS)-4-phenylcyclohexyl)oxy)methyl)-pyrrolidine-1-carboxylate] | 316 |
| CCNC(=O)N1[C@H](C)C[C@H](NS(C)(=O)=O)[C@@H]1COC1CCC(C(C)C)CC1 (stereo partly drawn) [Example 1, (2R,3S,5R)—N-ethyl-2-(((4-isopropylcyclohexyl)oxy)methyl)-5-methyl-3-(methylsulfonamido)-pyrrolidine-1-carboxamide] | 15.2 |
| CCOC(=O)N1[C@H](C)C[C@H](NS(C)(=O)=O)[C@@H]1COC1CCC(C(C)C)CC1 (stereo partly drawn) [Example 7, ethyl (2R,3S,5R)-2-(((4-isopropylcyclohexyl)oxy)meth-yl)-5-methyl-3-(methylsulfonamido)pyrrolidine-1-carboxylate] | 45.5 |

same assay, conditions: CHO, hOX2R_IP; percentage of mean max effect of a reference compound at 1 uM (100% activity vs Orexin A)

| Structure (SMILES) | Emax [%] |
| --- | --- |
| CCc1ccccc1[C@H]1CC[C@@H](OC[C@H]2[C@@H](NS(=O)(=O)N(C)C)C[C@@H](C)N2C(=O)OC)CC1 [Example 65, Methyl (2R,3S,5R)-3-((N,N-dimethylsulfamoyl)amino)-2-((((1s,4S)-4-(2-ethylphenyl)cyclohexyl)oxy)methyl)-5-methylpyrrolidine-1-carboxylate] | 101 |
| COC(=O)N1[C@H](CC#N)C[C@H](NS(=O)(=O)N(C)C)[C@@H]1CO[C@H]1CC[C@@H](c2cccc(F)c2)CC1 [Example 52, methyl (2R,3S,5S)-5-(cyanomethyl)-3-((N,N-dimethylsulfamoyl)amino)-2-((((CIS)-4-(3-fluorophenyl)cyclohexyl)oxy)methyl)pyrrolidine-1-carboxylate] | 102 |
| COC(=O)N1[C@H](C)C[C@H](NS(=O)(=O)N(C)C)[C@@H]1CO[C@H]1CC[C@@H](c2cc(F)cc(F)c2)CC1 [Example 32, methyl (2R,3S,5R)-2-((((1s,4S)-4-(3,5-difluorophenyl)cyclohexyl)oxy)methyl)-3-((N,N-dimethylsulfamoyl)amino)-5-methylpyrrolidine-1-carboxylate] | 101 |
| CCC1(CC)C[C@@H](NS(C)(=O)=O)[C@@H](CO[C@H]2CC[C@@H](c3ccccc3)CC2)N1C(=O)OC (relative stereo) [Example 42, methyl (CIS)-2,2-diethyl-4-(methylsulfonamido)-5-((((CIS)-4-phenylcyclohexyl)oxy)methyl)-pyrrolidine-1-carboxylate] | 100 |
| CC(C)C1CCC(OC[C@H]2[C@@H](NS(C)(=O)=O)C[C@@H](C)N2C(=O)OCCF)CC1 (stereo partly drawn) [Example 10, 2-fluoroethyl (2R,3S,5R)-2-(((4-isopropylcyclohexyl)oxy)meth-yl)-5-methyl-3-(methylsulfonamido)pyrrolidine-1-carboxylate] | 99 |
| COC(=O)N1[C@H](C)C[C@H](NS(=O)(=O)N(C)C)[C@@H]1CO[C@H]1CC[C@@H](c2cc(F)ccc2F)CC1 [Example 21, methyl (2R,3S,5R)-2-((((1R,4R)-4-(2,5-difluorophenyl)cyclohexyl)oxy)methyl)-3-((N,N-dimethylsulfa-moyl)amino)-5-methylpyrrolidine-1-carboxylate] | 101 |
| COC(=O)N1[C@H](C)C[C@H](NS(C)(=O)=O)[C@@H]1CO[C@H]1CC[C@@H](c2c(F)ccc(F)c2F)CC1 [Example 28, methyl (2R,3S,5R)-5-methyl-3-(methylsulfonamido)-2-((((1r,4R)-4-(2,3,6-trifluorophenyl)-cyclohexyl)oxy)methyl)pyrro-lidine-1-carboxylate] | 102 |
| CCNC(=O)N1[C@H](C)C[C@H](NS(C)(=O)=O)[C@@H]1COC1CCC(C(C)C)CC1 (stereo partly drawn) [Example 1, (2R,3S,5R)—N-ethyl-2-(((4-isopropylcyclohexyl)oxy)methyl)-5-methyl-3-(methylsulfonamido)-pyrrolidine-1-carboxamide] | 101 |
| CCOC(=O)N1[C@H](C)C[C@H](NS(C)(=O)=O)[C@@H]1COC1CCC(C(C)C)CC1 (stereo partly drawn) [Example 7, ethyl (2R,3S,5R)-2-(((4-isopropylcyclohexyl)oxy)meth-yl)-5-methyl-3-(methylsulfonamido)pyrrolidine-1-carboxylate] | 100 |

same assay, conditions: hOX2R_IP; percentage of mean max effect of a reference compound at 1 uM (100% activity vs Orexin A)

| Structure (SMILES) | Emax (%) |
| --- | --- |
| COCCN(C)S(=O)(=O)N[C@H]1C[C@@H](C)N(C(=O)OC)[C@H]1CO[C@H]1CC[C@@H](c2cccc(F)c2)CC1 [Example 55, methyl (2R,3S,5R)-2-((((1s,4S)-4-(3-fluorophenyl)cyclohex-yl)oxy)methyl)-3-((N-(2-methoxyethyl)-N-methylsulfamoyl)amino)-5-methylpyrrolidine-1-carboxylate] | 100 |
| COC(=O)N1[C@H](C)C[C@H](NS(C)(=O)=O)[C@@H]1CO[C@H]1CC[C@@H](c2cc(F)cc(F)c2)CC1 [Example 71, Methyl (2R,3S,5R)-2-((((1s,4S)-4-(3,5-difluorophenyl)cyclohexyl)oxy)methyl)-5-methyl-3-(methylsulfonamido)pyrrolidine-1-carboxylate] | 102 |
| COC(=O)N1[C@H](C)C[C@H](NS(=O)(=O)N(C)CCC#N)[C@@H]1CO[C@H]1CC[C@@H](c2cccc(F)c2)CC1 [Example 54, methyl (2R,3S,5R)-3-((N-(2-cyanoethyl)-N-methylsulfamoyl)amino)-2-((((1s,4S)-4-(3-fluorophenyl)cyclohex-yl)oxy)methyl)-5-methylpyrrolidine-1-carboxylate] | 98 |
| COC(=O)N1[C@H](C)C[C@H](NS(=O)(=O)N(C)CCO)[C@@H]1CO[C@H]1CC[C@@H](c2cccc(F)c2)CC1 [Example 56, methyl (2R,3S,5R)-2-((((1s,4S)-4-(3-fluorophenyl)cyclohex-yl)oxy)methyl)-3-((N-(2-hydroxyethyl)-N-methylsulfamoyl)amino)-5-methylpyrrolidine-1-carboxylate] | 101 |
| COC(=O)N1[C@H](C)C[C@H](NS(=O)(=O)N(C)CC#N)[C@@H]1CO[C@H]1CC[C@@H](c2cccc(F)c2)CC1 [Example 53, Methyl (2R,3S,5R)-3-((N-(cyanomethyl)-N-methylsulfamoyl)amino)-2-((((1s,4S)-4-(3-fluorophenyl)cyclohexyl)oxy)methyl)-5-methylpyrrolidine-1-carboxylate] | 102 |
| COC(=O)N1C(CO)CC(NS(C)(=O)=O)C1CO[C@H]1CC[C@@H](c2ccccc2)CC1 (stereo partly drawn) [Example 50, methyl (CIS)-5-(hydroxymethyl)-3-(methylsulfonamido)-2-((((CIS)-4-phenylcyclohexyl)oxy)-methyl)pyrrolidine-1-carboxylate] | 101 |
| CNS(=O)(=O)N[C@H]1C[C@@H](C)N(C(=O)OCC(F)F)[C@H]1CO[C@H]1CC[C@@H](c2ccccc2)CC1 [Example 16, 2,2-difluoroethyl (2R,3S,5R)-5-methyl-3-((N-methylsulfamoyl)amino)-2-((((1s,4S)-4-phenylcyclohexyl)oxy)methyl)pyrrolidine-1-carboxylate] | 101 |
| COC(=O)N1[C@H](C)C[C@H](NS(=O)(=O)N(C)C)[C@@H]1CO[C@H]1CC[C@@H](c2ccccc2)CC1 [Example 19, methyl (2R,3S,5R)-3-((N,N-dimethylsulfamoyl)amino)-5-methyl-2-((((1s,4S)-4-phenylcyclohexyl)-oxy)methyl)pyrrolidine-1-carboxylate] | 100 |
| COC(=O)N1C(CCO)CC(NS(C)(=O)=O)C1CO[C@H]1CC[C@@H](c2ccccc2)CC1 (stereo partly drawn) [Example 49, methyl (CIS)-5-(2-hydroxyethyl)-3-(methylsulfonamido)-2-((((CIS)-4-phenylcyclohexyl)oxy)methyl)pyrrolidine-1-carboxylate] | 102 |
| COC(=O)N1[C@H](C)C[C@H](NS(C)(=O)=O)[C@@H]1CO[C@H]1CC[C@H](c2cc(F)cc(F)c2)CC1 [Example 72, Methyl (2R,3S,5R)-2-((((1r,4R)-4-(3,5-difluorophenyl)cyclohexyl)oxy)methyl)-5-methyl-3-(methylsulfonamido)pyrrolidine-1-carboxylate] | 100 |
| COC(=O)N1[C@H](C)C[C@H](NS(=O)(=O)N(C)CCS(C)(=O)=O)[C@@H]1COC1CCC(c2cccc(F)c2)CC1 (stereo partly drawn) [Example 57, methyl (2R,3S,5R)-2-((((1s,4S)-4-(3-fluorophenyl)cyclohex-yl)oxy)methyl)-5-methyl-3-((N-methyl-N-(2-(methyslulfonyl)-ethyl)sulfamoyl)amino) pyrrolidine-1-carboxylate] | 100 |
